Results on two compounds are retold here after patent US20110021786A1, “Pharmaceutical Solutions, Process of Preparation and Therapeutic Uses” (UCB PHARMA, S.A., priority 2008, published 2011).

Like-named read-outs stand apart in the source and are kept apart here. A value given as a limit tells only on which side of the number the result lay.

A word on the ED50: it is the dose that gives a 50% effect, or the effect in half of the subjects. A high value points to weaker potency.

Series [1] can be described thus: stability test of brivaracetam solutions at different pH. It counts as physicochemical. How it is done:
Solutions at different pH are prepared (natural pH (not buffered) and pH 4.5, 5.0, 5.5, 6.0. The pH is controlled by means of an adequate buffer in order to obtain the wished pH (in the example by 50 mM citrate).
(§1) The solution is dispensed in 1.5 ml sealed glass vials.
(§2) A stability test is performed at 25° C., 40° C., 60° C. and 80° C.
The pH of the various solutions is measured at the beginning of the test and after 2 weeks, 4 weeks, and 10 weeks. The amounts of degradation products in the brivaracetam solutions are dosed in the various solutions.

Series [2] has as its target T1, Levetiracetam Binding Site (LBS) (Rattus norvegicus, UniProt Q02563).
T1 construct: from tissue; host or cells: rat cerebral cortex crude membranes (male Sprague-Dawley)
The experiment in a line: LBS binding assay. Details: species or system Sprague-Dawley rats. How it is done:
[LBS stands for Levetiracetam Binding Site cf. M. Noyer et al., Eur. J. Pharmacol., 286 (1995) 137-146.]
The inhibition constant (Ki) of a compound is determined in competitive binding experiments by measuring the binding of a single concentration of a radioactive ligand at equilibrium with various concentrations of the unlabeled test substance. The concentration of the test substance inhibiting 50% of the specific binding of the radioligand is called the IC50. The equilibrium dissociation constant Ki is proportional to the IC50 and is calculated using the equation of Cheng and Prusoff (Cheng Y. et al., Biochem. Pharmacol. […], 22, 3099-3108).
The concentration range usually encompasses 6 log units with variable steps (0.3 to 0.5 log). Assays are performed in mono- or duplicate, each Ki determination is performed on two different samples of test substance. […]
Membranes (150-200 μg of protein/assay) are incubated at 4° C. for 120 min in 0.5 ml of a 50 mmol/l Tris-HCl buffer (pH 7.4) containing 2 mmol/l MgCl2, 1 to 2 10^−9 mol/l of [^3H]-2-[4-(3-azidophenyl)-2-oxo-1-pyrrolidinyl]butanamide and increasing concentrations of the test substance. […] The radioactivity trapped onto the filters is counted by liquid scintillation in a β-counter (Tri-Carb 1900 or TopCount 9206, Camberra Packard, Belgium, or any other equivalent counter). […]

A short description of series [3]: bioavailability and safety of an intravenous formulation of brivaracetam. It is filed as in vivo, healthy subjects. How it is done:
A first step of the study done in a 3-way crossover in 24 healthy subjects (12 females, 12 males) compares the single-dose bioavailability of brivaracetam 10 mg oral tablets versus brivaracetam 10 mg administered as a 15 minute intravenous infusion, and as an IV bolus. In a second step, a single-dose escalation study (25 mg, 50 mg, 100 mg and 150 mg) is performed in 4 consecutive groups of 6 subjects (3 females, 3 males) to gain information and as a fast IV bolus, to assess the pharmacokinetics of brivaracetam at these dosing regimens and to explore dose proportionality.

For series [4], the system named is audiogenic seizures in sound-susceptible mice. The experiment in a line: animal model of sound-susceptible mice. It is filed as in vivo. As to conditions: Mus musculus, ip; intraperitoneally 60 minutes before induction of audiogenic seizures; dose producing 50% protection. From the text:
The objective of this test is to evaluate the anticonvulsant potency of a compound in sound-susceptible mice, a genetic animal model with reflex seizures. In this model of primary generalised epilepsy, seizures are evoked without electrical or chemical stimulation and the seizure types are, at least in part, similar in their clinical phenomenology to seizures occurring in man (Löscher W. 85 Schmidt D., Epilepsy Res. (1998), 2, 145-181; Buchhalter J. R., Epilepsia (1993), 34, S31-S41).
Male or female genetically sound-sensitive mice (14-28 g; N=10), derived from a DBA strain originally selected by Dr. Lehmann of the Laboratory of Acoustic Physiology (Paris) and bred in the UCB Pharma Sector husbandry unit since 1978, are used. The experimental design consisted of several groups, one group receiving the vehicle control and the other groups different doses of the test-compound. The compounds are administered intraperitoneally 60 minutes before the induction of audiogenic seizures.
For testing, the animals are placed in small cages, one mouse per cage, in a sound-attenuated chamber. […] During this interval, the mice are observed and the presence of the 3 phases of the seizure activity namely wild running, clonic and tonic convulsions, is recorded. The proportion of mice protected against wild running, clonic and tonic convulsions, respectively, is calculated. […]

A short description of series [5]: stability test of seletracetam solutions at different pH. It is filed as physicochemical. How it is done: Solutions at different pH are prepared (natural pH (not buffered) and pH 4.5, 5.0, 5.5, 6.0. The pH is controlled by means of an adequate buffer in order to obtain the wished pH (in the example: 50 mM acetate).
as §1, §2
The pH of the various solutions is measured at the beginning of the test and after 2 weeks, 4 weeks, and 10 weeks. The amounts of degradation products in the seletracetam solutions are dosed in the various solutions.

[6] abbreviates: solution having a pH range of 5.0 and 6.0.
The mark [7] stands for this setting: solution in the range of pH of 4.5 and 6.5.
Where [8] appears, read: 10 mg IV infusion or IV bolus versus 10 mg oral tablet, fully contained within the bioequivalence range.

T1 sequence (Q02563 whole entry): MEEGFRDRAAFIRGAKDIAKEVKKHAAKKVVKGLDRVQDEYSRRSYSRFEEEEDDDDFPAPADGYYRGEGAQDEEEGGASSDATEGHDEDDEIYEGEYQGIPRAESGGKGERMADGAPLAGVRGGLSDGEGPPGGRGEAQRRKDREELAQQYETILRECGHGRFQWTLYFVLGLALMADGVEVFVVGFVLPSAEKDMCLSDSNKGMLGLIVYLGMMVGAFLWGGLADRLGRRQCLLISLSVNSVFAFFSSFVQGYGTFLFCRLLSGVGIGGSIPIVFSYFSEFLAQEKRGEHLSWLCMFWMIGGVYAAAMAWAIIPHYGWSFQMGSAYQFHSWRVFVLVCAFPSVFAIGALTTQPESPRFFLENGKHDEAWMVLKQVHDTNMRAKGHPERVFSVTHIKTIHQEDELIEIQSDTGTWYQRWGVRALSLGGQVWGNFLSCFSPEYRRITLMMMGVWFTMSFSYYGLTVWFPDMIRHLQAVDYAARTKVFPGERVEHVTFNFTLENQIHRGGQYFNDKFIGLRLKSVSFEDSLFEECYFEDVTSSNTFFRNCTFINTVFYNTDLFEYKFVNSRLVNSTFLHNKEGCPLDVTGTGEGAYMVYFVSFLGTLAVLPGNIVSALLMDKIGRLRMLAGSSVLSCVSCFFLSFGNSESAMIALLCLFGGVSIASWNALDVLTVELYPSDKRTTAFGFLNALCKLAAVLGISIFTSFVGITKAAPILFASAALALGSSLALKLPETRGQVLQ

As to `CCC[C@@H]1CC(=O)N([C@@H](CC)C(N)=O)C1` [Brivaracetam, (2S)-2-[(4R)-2-oxo-4-propyl-pyrrolidin-1-yl] butanamide], the degradation rate entry in series [1] (setting [6]) is given as “lowest”. Moreover, in series [1] (setting [7]), the stability of solution result is “stable”. The Ki in series [2] was no more than 1000 nM. In series [3] (setting [8]), the “90% confidence intervals of geometric ratios of AUC” value is 80-125% and the “90% confidence intervals of geometric ratios of Cmax” value was 80-125%. For the same compound, the “bioequivalence to single dose of brivaracetam 10 mg oral tablet” value in series [3] (10 mg via 15-minute IV infusion, healthy subjects) is recorded as “bioequivalent”. The “bioequivalence to single dose of brivaracetam 10 mg oral tablet” value in series [3] (10 mg via IV bolus, healthy subjects) is on record as “bioequivalent”. The “pharmacokinetic parameters after IV infusion and IV bolus” value in series [3] (IV infusion compared with IV bolus) is on record as “similar”. Moreover, in series [3] (dose range 25-150 mg), the “extent of exposure versus dose” value was “proportional to the administered dose”. In addition, the safety and tolerability result in series [3] (from 25 mg to 150 mg as IV infusion or IV bolus, healthy subjects) is “safe and well tolerated”. In series [4], the ED50 is no more than 100 µmol/kg.
As for `CC[C@@H](C(N)=O)N1C[C@H](C=C(F)F)CC1=O` [Seletracetam, (2S)-2-[(4S)-4-(2,2-difluorovinyl)-2-oxo-pyrrolidin-1-yl]butanamide], the Ki in series [2] (rat cerebral cortex membranes, [3H]-2-[4-(3-azidophenyl)-2-oxo-1-pyrrolidinyl]butanamide radioligand, read-out: pKi (converted)) is no more than 1000 nM. Also, the degradation rate entry in series [5] (setting [6]) was “lowest”. Further, the stability of solution result in series [5] (setting [7]) was “stable”. In series [4], this compound displayed an ED50 of no more than 100 µmol/kg.
